Data from ChEMBL document CHEMBL1269006, “Synthetic human serum albumin Sudlow I binding site mimics” (J Med Chem, 2010).

Experiment: Displacement of [3H](S)-warfarin from methacrylic acid-ethylene dimethacrylate copolymer

SMILES	EC50	logEC50
CC(=O)CC(c1ccc(Cl)cc1)c1c(O)c2ccccc2oc1=O (stereo unspecified) [COUMACHLOR]	165 µM	-3.78
O=c1ccc2ccccc2o1 [COUMARIN]	1290 µM	-2.89
CC(=O)CC(c1ccccc1)c1c(O)c2ccccc2oc1=O (stereo unspecified) [WARFARIN]	89.6 µM	-4.05
